This note sets out measurements from publication PMC11009625, “Antibiotic class with potent in vivo activity targeting lipopolysaccharide synthesis in Gram-negative bacteria” (Proceedings of the National Academy of Sciences of the …, 2024).

The structures appear in SMILES notation.

The data set in a line: in vivo. Also noted: species or system NMRI mice. To be noted: female, NMRI, mouse, sc. The method, then: PK and safety studies were done the Latvian Institute for Organic Synthesis (Riga, Latvia) and in vivo efficacy studies were done at Statens Serum Institut (Copenhagen, Denmark). Assays were done in accordance with the relevant permits at the respective sites (SI Appendix). For PK studies, plasma samples were taken from mice dosed subcutaneously and the samples were analyzed by UPLC/MS/MS. For in vivo efficacy studies, neutropenic mice were infected intraperitoneally with 10^6 bacteria and treated with subcutaneously with test compounds 1 h after infection. The mice were euthanized 4 h after treatment and serially diluted samples of blood and peritoneal fluid were plated onto blood agar plates. Complete experimental details available in SI Appendix. […]
In vivo pharmacokinetic studies
Animals. NMRI female mice (10–12 weeks old, 27–33 g, n = 60) were obtained from ENVIGO (The Netherlands) and housed prior to treatment under standard conditions (21–23 °C, 12-h light/dark cycle, relative humidity 45%–65%) with unlimited access to food (R70 diet from […]
Lantmännen) and water. The experimental procedures were performed in accordance with the guidelines of the European Community and local laws and policies (Directive 2010/63/EU), and all of the procedures were approved by Food and Veterinary Service, Riga, Latvia. […]
PK assay in mice. For PK studies mice were dosed subcutaneously (SC) via a single bolus injection (injection volume 10 mL/kg). Blood samples were collected in tubes containing heparin. Blood was sampled from tail vein 15, 30, 60, 120, and 240min after the SC administration of the compounds. Tubes were centrifuged at +4 °C 10,000× g for 3 min. Plasma samples were collected and stored at −20 °C until analysis.
Plasma sample analysis by UPLC/MS/MS. Concentrations of EBL-3599 and EBL-3647 in mouse blood plasma were measured by liquid chromatography tandem mass spectrometry (LC/MS/MS) in positive electrospray ionization (ESI+) in multi reaction monitoring (MRM) mode.
Analyses were performed on a Waters Acquity UPLC system coupled to Waters XEVO TQ-Smicro tandem mass spectrometer. Chromatographical separation was carried out on Waters Acquity BEH C18 column (2.1×50mm, 1.7µm). The column temperature was 30°C, flow rate was 0.4mL/min. Linear gradient elution was applied, solvent A was 0.1% formic acid in water and solvent B was acetonitrile. The gradient program was: 0min – 5% B; 2.5min – 98% B; 4.5min – 98% B; 4.7min – 5% B; 5min – 5% B. Injection volume was 1µL.
Mass spectrometry parameters were obtained experimentally by direct infusion of EBL-3599 and […]
energy was 30 for all transitions. MS/MS transitions for EBL-3647 were 667.80 > 225.90 and 667.80 > 309.96. Cone voltage was 15V and collision energy was 35 and 25, respectively.
Calibration standards and quality control samples were prepared by spiking a blank mouse plasma with a stock solution of analyte to achieve a nominal concentration from 0.08 μg/mL to 80 μg/mL for both analyte.
A sample volume of 20 μL was transferred into a plastic tube and mixed with 300μL acetonitrile/methanol mixture (3:1, v/v) to precipitate proteins. The tubes was vortexed to mix and centrifuged at 10000 rpm for 10 min. 200 μL of supernatant was diluted with 600 μL of 0.1% formic acid and subjected to LC/MS/MS analysis. Samples above the upper limit of calibration should be diluted 10 times with blank plasma extract and reanalyzed. Bioanalysis of samples from each mouse were measured in duplicate and the results averaged.
Bacterial strains and inoculum. E. coli EC 106-09 (EN122) and K. pneumoniae SSI #3010 (EN124) are clinical isolates from Denmark. Bacterial suspensions for inoculation of mice were prepared

A word on the AUC: it is concentration integrated over time. Broadly, the Cmax is the peak of the concentration-time curve. On to `Cc1cc(C#N)nc(N2CCN(S(=O)(=O)c3ccc(NC(=O)c4cc(CNCCCN)ccc4N(C)S(C)(=O)=O)cc3)CC2)n1.Cl.Cl` [EBL-3599], for which the AUC is 22900 ng·h/mL (10 mg/kg), 58000 ng·h/mL (25 mg/kg), 136000 ng·h/mL (50 mg/kg) and 349000 ng·h/mL (100 mg/kg). Further, the highest concentration (Cmax) reads like this: (10 mg/kg) 13000 ng/mL; (25 mg/kg) 27000 ng/mL; (50 mg/kg) 65000 ng/mL; (100 mg/kg) 142000 ng/mL.

With `Cc1cc(C#N)nc(N2CCN(S(=O)(=O)c3ccc(NC(=O)c4cc(CN5CC(CN)C5)ccc4N(C)S(C)(=O)=O)cc3)CC2)n1` [EBL-3647], the area under the curve (AUC) is, setting by setting: (10 mg/kg) 20200 ng·h/mL; (25 mg/kg) 55300 ng·h/mL; (50 mg/kg) 140000 ng·h/mL; (100 mg/kg) 222000 ng·h/mL. Besides, the highest level (10 mg/kg) (Cmax) was 12000 ng/mL, the maximum concentration (Cmax) (25 mg/kg) came out at 30000 ng/mL, the Cmax (50 mg/kg) is 72000 ng/mL and the concentration (100 mg/kg) peaked (Cmax) at 130000 ng/mL.
